Test results published in patent US10010576B2, “Method of treatment” (Hexima Limited, priority 2014, dated 2018).

Assays:
[1] = tested on: Microsporum fulvum; experiment: Antifungal growth inhibition assay in 96 well microtitre plates (A595); assay type: cell-based
Description: (§1) The inhibitory effects of the plant defensins on the growth of Trichophyton rubrum, T. interdigitale, Microsporum fulvum and C. albicans (obtained from the National Mycology Reference Centre, South Australia Pathology at the Women's and Children's Hospital, Adelaide, Australia) are measured essentially as described by Broekaert et al. (1990) FEMS Microbiol Lett 69:55-59. Spores of T. rubrum, T. interdigitale and M. fulvum are isolated from sporulating fungus growing on 1⁄2 strength Sabouraud dextrose agar (SDA). Spores were removed from the plates by the addition of 1⁄2 strength potato dextrose broth (PDB). C. albicans cells are grown in Yeast Peptone Broth (YPD) for 16 h. Spore and cell concentrations are measured using a hemocytometer. Antifungal assays are conducted in 96 well microtitre plates essentially as herein described. Wells are loaded with 20 μm L of filter sterilized (0.22 μm syringe filter, Millipore) defensin (10× stock for each final concentration) or water and 80 μm L of 5×10^4 spores/mL (T. rubrum, T. interdigitale, M. fulvum) or 5,000 cells/mL (C. albicans) in 1⁄2 strength PDB. The plates are incubated at 30° C. Fungal growth is assayed by measuring optical density at 595 nm ([…]) using a microtitre plate reader (SpectraMax Pro M2; Molecular Devices. Growth is allowed to proceed until the optical density (OD) of the fungus in the absence of any test defensin reached an OD of 0.2. Each test is performed in duplicate.

[2] = tested on: Human monocytic lymphoma (U937) cells; assay type: cell-based
Description: Human monocytic lymphoma (U937) cells are cultured in RPMI-1640 medium. All culture media are supplemented with 5-10% v/v fetal calf serum, 100 U/ml of penicillin, and 100 μg/ml of streptomycin. Cell lines are cultured at 37° C. in a humidified atmosphere containing 5% v/v CO2. Adherent cell lines are detached from the flask by adding a mixture containing 0.25% v/v trypsin and […] EDTA. A flow cytometry-based propidium iodide (PI) uptake assay is performed to analyze the ability of plant defensins to permeabilize U937 cells (essentially as described in Poon et al, 2014). Briefly, cells are suspended to 1×10^6 cells/ml in 0.1% v/v BSA/RPMI-1640 and incubated with plant defensins (10 μM) at 37° C. for 30 min Samples are added to PBS containing a final concentration of 1 μg/ml PI and placed on ice. Samples are then analyzed immediately using the BD FACSCanto II Flow Cytometer and BD FACSDiva software v6.1.1. The resultant flow cytometry data is analyzed using FlowJo software v8.8.6. Cells are gated appropriately based on forward scatter and side scatter and cell permeabilization is defined by PI-positive staining.

[3] = tested on: C. albicans; experiment: Antifungal growth inhibition assay in 96 well microtitre plates (A595); assay type: cell-based, Candida albicans
Description: as §1

[4] = tested on: Trichophyton rubrum, T. interdigitale, Microsporum fulvum and C. albicans; experiment: Inhibition assays, summary across the range of fungal pathogens; assay type: cell-based; conditions: summary of Table 3
Description: as §1

[5] = tested on: Trichophyton rubrum; experiment: Antifungal growth inhibition assay in 96 well microtitre plates (A595); assay type: cell-based
Description: as §1

[6] = tested on: T. interdigitale; experiment: as above; assay type: cell-based, Trichophyton interdigitale
Description: as §1

[7] = Penetration through human nails (nail adapter, wetted cotton bud receptor, RP-HPLC); assay type: in vitro ADME
Description: Penetration of NaD1 through human nails was measured according to the method of Hui et al. (2002) J Pharm Sci 91(1):189-195. Human toenails were obtained from ScienceCare (USA) and washed with phosphate buffered saline (details, PBS) before being placed on a kimwipe that had been soaked in PBS for 3 h to rehydrate the nail. […]
The cotton bud in contact with the underside of the nail was removed after 24 h and every 24 h following. Protein that had passed through the nail was recovered from the cotton bud by washing twice with 500 μL of 0.1% v/v trifluoroacetic acid. Recovered protein was quantified using RP-HPLC.

[8] = Day 3, 10 uL of 10% solution, 0.8 cm^2, daily application
[9] = Day 6, 10 uL of 10% solution, 0.8 cm^2, daily application
[10] = Day 9, 10 uL of 10% solution, 0.8 cm^2, daily application
[11] = Day 12, 10 uL of 10% solution, 0.8 cm^2, daily application
[12] = Day 15, 10 uL of 10% solution, 0.8 cm^2, daily application

For “HXL009: Class I plant defensin from Zea mays, SEQ ID NO:9 (Table 1) (TVCMRHNNFYHGPCMSNKDCANSCVQHNLGVGGYCRGKIPFNKECMCTFEC; HXL009 Zea mays)”, the “IC50 against M. fulvum” value [1] was >100 µg/mL, the “Cells permeabilized (PI-positive)” value [2] was “less than 2%” and the “IC50 against C. albicans” value [3] was >100 µg/mL. For the same compound, the “Antifungal activity across the range of fungal pathogens” value (shortened to “Antifungal activity across the range”) [4] was “did not display any activity at the concentrations tested”.
For “HXL003: Class I plant defensin from Triticum aestivum, SEQ ID NO:6 (ARDCTSQSHKFVGLCLSDRNCASVCLTEYFTGGKCDHRRCVCTKGC; HXL003 Triticum aestivum)”, the “IC50 against M. fulvum” value [1] was >100 µg/mL and the “IC50 against C. albicans” value [3] was >100 µg/mL.
For “HXL013: Class I plant defensin from Glycine max, SEQ ID NO:11 (KDCLTRRHGFQGRCLFDRQCAHVCRSDGFIGGQCRGPLRKCFCSRPC; HXL013 Glycine max)”, the “IC50 against T. rubrum” value [5] was 22 µg/mL, the “IC50 against M. fulvum” value [1] was 5.5 µg/mL and the “Cells permeabilized (PI-positive)” value [2] was 5%. The “IC50 against C. albicans” value [3] was 20 µg/mL and the “Antifungal activity across the range” value [4] was “intermediate activity”.
For “HXL035: Class I plant defensin from Picramnia pentandra, SEQ ID NO:2 (KVCTKPSKFFKGLCGFDRDCTVACKKEGLASGFCQNKGFFNVVCVCRKPC; HXL035 Picramnia pentandra)”, the “IC50 against T. rubrum” value [5] was 2 µg/mL, the “IC50 against M. fulvum” value [1] was 2 µg/mL and the “IC50 against C. albicans” value [3] was 18 µg/mL. The “IC50 against T. interdigitale” value [6] was 1 µg/mL and the “Antifungal activity across the range” value [4] was “the most effective plant defensins across the range of fungal pathogens”.
For “HXL015: Class I plant defensin from Oryza sativa, SEQ ID NO:12 (RHCLSQSHRFKGMCVSSNNCANVCRTESFPDGECKSHGLERKCFCKKVC; HXL015 Oryza sativa)”, the “IC50 against T. rubrum” value [5] was 10 µg/mL, the “IC50 against M. fulvum” value [1] was 12.5 µg/mL and the “IC50 against T. interdigitale” value [6] was 3.5 µg/mL. For the same compound, the “Antifungal activity across the range” value [4] was “intermediate activity”.
For `C=C1CCN([C@H](C)[C@](O)(Cn2cncn2)c2ccc(F)cc2F)CC1` [Efinaconazole, efinaconazole], the “Cumulative amount through nail” value ([7]; human, 1 day, 10 %) was 0.4 µg, the “Cumulative amount through nail, percent (line without head; fits percent of applied dose)” value ([7]; human, 1 day, 10 %) was 0.2% and the “Cumulative amount through nail” value ([7]; human, 2 day, 10 %) was 0.7 µg. For the same compound, the “Cumulative amount through nail, percent (line without head; fits percent of applied dose)” value ([7]; human, 2 day, 10 %) was 0.4%, the “Cumulative amount through nail” value ([7]; human, 3 day, 10 %) was 1.3 µg and the “Cumulative amount through nail, percent (line without head; fits percent of applied dose)” value ([7]; human, 3 day, 10 %) was 0.7%. For the same compound, the “Cumulative amount through nail” value ([7]; human, 4 day, 10 %) was 1.6 µg, the “Cumulative amount through nail, percent (line without head; fits percent of applied dose)” value ([7]; human, 4 day, 10 %) was 0.8% and the “Cumulative amount through nail” value ([7]; human, 6 day, 10 %) was 2.6 µg. The “Cumulative amount through nail, percent (line without head; fits percent of applied dose)” value ([7]; human, 6 day, 10 %) was 1.3%, the “Cumulative amount through nail” value ([7]; human, 9 day, 10 %) was 4.0 µg and the “Cumulative amount through nail, percent (line without head; fits percent of applied dose)” value ([7]; human, 9 day, 10 %) was 2.0%. For the same compound, the “Cumulative amount through nail” value ([7]; human, 12 day, 10 %) was 5.4 µg, the “Cumulative amount through nail, percent (line without head; fits percent of applied dose)” value ([7]; human, 12 day, 10 %) was 2.7% and the “Cumulative amount through nail” value ([7]; human, 15 day, 10 %) was 6.5 µg. For the same compound, the “Cumulative amount through nail, percent (line without head; fits percent of applied dose)” value ([7]; human, 15 day, 10 %) was 3.3%.
In the case of “HXL001: Class I plant defensin from Zea mays, SEQ ID NO:4 (RHCLSQSHRFKGLCMSSNNCANVCQTENFPGGECKAEGATRKCFCKKIC; HXL001 Zea mays)”, the “IC50 against T. rubrum” value [5] is reported as >100 µg/mL, the “IC50 against M. fulvum” value [1] is reported as >100 µg/mL and the “Cells permeabilized (PI-positive)” value [2] is reported as “less than 2%”. The “IC50 against C. albicans” value [3] was 35 µg/mL and the “Antifungal activity across the range” value [4] was “did not display any activity at the concentrations tested”.
With `Cc1cc(C2CCCCC2)n(O)c(=O)c1` [Ciclopirox, ciclopirox] the “Cumulative amount through nail” value ([7]; human, 3 day, 10 %) was 1 µg, the “Cumulative amount through nail, percent (line without head; fits percent of cumulative applied dose)” value ([7]; human, 3 day, 10 %) was 0.03% and the “Cumulative amount through nail” value ([7]; human, 6 day, 10 %) was 2 µg. For the same compound, the “Cumulative amount through nail, percent (line without head; fits percent of cumulative applied dose)” value ([7]; human, 6 day, 10 %) was 0.03%, the “Cumulative amount through nail” value ([7]; human, 9 day, 10 %) was 4 µg and the “Cumulative amount through nail, percent (line without head; fits percent of cumulative applied dose)” value ([7]; human, 9 day, 10 %) was 0.04%. For the same compound, the “Cumulative amount through nail” value ([7]; human, 12 day, 10 %) was 6 µg, the “Cumulative amount through nail, percent (line without head; fits percent of cumulative applied dose)” value ([7]; human, 12 day, 10 %) was 0.05% and the “Cumulative amount through nail” value ([7]; human, 15 day, 10 %) was 9 µg. The “Cumulative amount through nail, percent (line without head; fits percent of cumulative applied dose)” value ([7]; human, 15 day, 10 %) was 0.06%.
In the case of “HXL002: Class I plant defensin from Triticum aestivum, SEQ ID NO:5 (RDCLSQSHKFKGACLSSSNCAAVCRTENFPDGECHTHNFARKCFCKRAC; HXL002 Triticum aestivum)”, the “IC50 against M. fulvum” value [1] is reported as 50 µg/mL, the “Inhibition of M. fulvum” value [1] is reported as “very poor inhibitors” and the “Cells permeabilized (PI-positive)” value [2] is reported as “less than 2%”. For the same compound, the “IC50 against C. albicans” value [3] was 35 µg/mL and the “Inhibition of C. albicans” value [3] was “very poor inhibitors”.
With “HXL005: Class I plant defensin from Taraxcum kok-saghyz, SEQ ID NO:8 (Table 1) (KMCQTTSHAFSCVNDSGCSGSCEKQGFASGKCDGVRRRCTCYKKC; HXL005 Taraxcum kok-saghyz)” the “IC50 against T. rubrum” value [5] was 3 µg/mL, the “IC50 against M. fulvum” value [1] was 5 µg/mL and the “Cells permeabilized (PI-positive)” value [2] was ~25%. For the same compound, the “IC50 against C. albicans” value [3] was 22 µg/mL, the “IC50 against T. interdigitale” value [6] was 3.5 µg/mL and the “Antifungal activity across the range” value [4] was “the most effective plant defensins across the range of fungal pathogens”.
With `OB1OCc2cc(F)ccc21` [Tavaborole, tavaborole] the “Cumulative amount through nail” value [7, 8] was 60 µg, the “Cumulative amount through nail, percent (line without head; fits percent of cumulative applied dose)” value [7, 8] was 2.0% and the “Cumulative amount through nail” value [7, 9] was 220 µg. The “Cumulative amount through nail, percent (line without head; fits percent of cumulative applied dose)” value [7, 9] was 3.7%, the “Cumulative amount through nail” value [7, 10] was 610 µg and the “Cumulative amount through nail, percent (line without head; fits percent of cumulative applied dose)” value [7, 10] was 6.8%. For the same compound, the “Cumulative amount through nail” value [7, 11] was 1280 µg, the “Cumulative amount through nail, percent (line without head; fits percent of cumulative applied dose)” value [7, 11] was 10.7% and the “Cumulative amount through nail” value [7, 12] was 2240 µg. The “Cumulative amount through nail, percent (line without head; fits percent of cumulative applied dose)” value [7, 12] was 14.9%.
With “HXP4: Artificial defensin variant, Loop1B from a Class I defensin replaces that of a Solanaceous Class II defensin, SEQ ID NO:21 (RECKTESHRFKGPCITKPPCRKACISEKFTDGHCSKILRRCLCTKPC; HXP4)” the “Cells permeabilized (PI-positive)” value [2] was 13%.
